The values that follow come from ChEMBL document CHEMBL5113457, “Withaferin A, a polyfunctional pharmacophore that includes covalent engagement of IPO5, is an inhibitor of influenza A replication” (Bioorg Med Chem, 2022).

Calls of active or inactive are those of the source. The rule behind the calls is not given here.

Data set [1] concerns Influenza A virus. In words: Antiviral activity against Influenza A virus strain A/Netherlands/604/2009 infected in human A549 cells assessed as reduction in influenza virus nucleoprotein production at 1 uM preincubated for 40 mins followed by virus infection and measured after 4 to 6 hrs by Western blot analysis. It counts as functional, organism-based. The conditions noted are these: time 280-400 min.

Data set [2] has as its target Annexin A2 (Homo sapiens) (UniProt P07355). Nature of the data set: Competitive binding affinity to human annexin A2 in human A549 cell lysate at 10 uM for 30 mins followed by GOYA-P treatment for 30 mins by DTB-Cy3 dye based SDS-PAGE analysis. It is filed as subcellular. The conditions noted are these: time 60.0 min.
Data set [3] deals with Influenza A virus. Nature of the data set: Antiviral activity against Influenza A virus strain A/Netherlands/604/2009 infected in human A549 cells assessed as reduction in influenza virus nucleoprotein production at 2.5 uM preincubated for 40 mins followed by virus infection and measured after 4 to 6 hrs by Western blot analysis. It is filed as functional, organism-based. Particulars: time 280-400 min. Background: In western blotting, separated proteins are transferred to a membrane and probed.

Data set [4] has as its system A549. Nature of the data set: Upregulation of HO-1 expression in human A549 cells at 1 uM for 2 to 6 hrs by western blot analysis. It is filed as functional, cell-based. The conditions noted are these: time 2-6 hrs.
Data set [5] concerns Influenza A virus. In words: Antiviral activity against drug treated Influenza A virus strain A/Netherlands/604/2009 cell lysate infected in dog MDCK cells assessed as reduction in viral replication at 1 uM and measured after 8 hr by crystal violet staining based plaque assay. It is filed as functional, organism-based.
For data set [6], the target named is T1, Importin-5 (Homo sapiens) (UniProt O00410).
T1 sequence (whole entry): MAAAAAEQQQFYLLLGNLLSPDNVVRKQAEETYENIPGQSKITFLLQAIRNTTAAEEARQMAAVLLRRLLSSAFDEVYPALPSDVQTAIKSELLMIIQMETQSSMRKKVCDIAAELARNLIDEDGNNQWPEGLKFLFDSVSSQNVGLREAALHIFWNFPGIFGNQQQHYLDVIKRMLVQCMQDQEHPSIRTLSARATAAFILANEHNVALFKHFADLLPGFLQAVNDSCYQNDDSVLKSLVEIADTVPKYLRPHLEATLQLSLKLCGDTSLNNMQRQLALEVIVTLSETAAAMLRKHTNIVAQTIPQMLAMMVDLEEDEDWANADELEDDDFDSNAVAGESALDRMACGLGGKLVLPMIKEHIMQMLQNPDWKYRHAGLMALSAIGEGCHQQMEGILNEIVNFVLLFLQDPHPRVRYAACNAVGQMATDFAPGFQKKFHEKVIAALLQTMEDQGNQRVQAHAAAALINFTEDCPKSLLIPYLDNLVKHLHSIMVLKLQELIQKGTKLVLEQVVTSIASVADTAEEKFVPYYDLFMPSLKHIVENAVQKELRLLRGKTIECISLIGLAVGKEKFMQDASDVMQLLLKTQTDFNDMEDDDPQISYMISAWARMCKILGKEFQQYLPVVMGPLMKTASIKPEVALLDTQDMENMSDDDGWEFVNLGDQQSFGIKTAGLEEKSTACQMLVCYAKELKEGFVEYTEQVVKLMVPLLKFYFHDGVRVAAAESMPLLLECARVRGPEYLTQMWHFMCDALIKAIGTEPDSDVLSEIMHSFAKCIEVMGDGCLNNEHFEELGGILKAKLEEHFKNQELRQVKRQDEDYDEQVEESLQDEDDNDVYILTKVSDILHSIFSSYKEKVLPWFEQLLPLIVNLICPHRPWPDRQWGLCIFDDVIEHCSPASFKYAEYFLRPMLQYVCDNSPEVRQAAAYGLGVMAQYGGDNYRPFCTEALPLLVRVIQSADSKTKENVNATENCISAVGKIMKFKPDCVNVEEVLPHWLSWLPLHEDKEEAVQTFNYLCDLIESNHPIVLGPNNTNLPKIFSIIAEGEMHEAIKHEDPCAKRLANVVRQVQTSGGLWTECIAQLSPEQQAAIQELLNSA
Nature of the data set: Competitive binding affinity to human IPO5 in human PC-3 cell lysate at 10 uM for 30 mins followed by GOYA-P treatment for 30 mins by DTB-Cy3 dye based pull-down assay. It counts as subcellular. The conditions noted are these: time 60.0 min.

The subject of data set [7] is Influenza A virus. Nature of the data set: Antiviral activity against drug treated Influenza A virus strain A/Netherlands/604/2009 cell lysate infected in dog MDCK cells assessed as reduction in viral replication at 500 nM and measured after 8 hr by crystal violet staining based plaque assay. It is filed as functional, organism-based.
Data set [8] relates to A549. Nature of the data set: Cytotoxicity against human A549 cells assessed as reduction in cell viability at 1 uM for 10 hrs by Hoechst 33342 staining based fluorescence microscopy. It is filed as toxicity. The conditions noted are these: a549, 10 h.
The target of data set [9] is Vimentin (Homo sapiens) (UniProt P08670). Nature of the data set: Competitive binding affinity to human Vimentin in human PC-3 cell lysate at 10 uM for 30 mins followed by WA-P2 treatment for 30 mins by SDS gel Cy3 fluorescence based MS/MS analysis. It counts as subcellular. The conditions noted are these: time 60.0 min.
In data set [10] the test system is Influenza A virus. Nature of the data set: Antiviral activity against Influenza A virus strain A/Netherlands/604/2009 infected in human A549 cells assessed as reduction in influenza virus nucleoprotein production at 1 to 10 uM preincubated for 40 mins followed by virus infection and measured after 4 to 6 hrs by Western blot analysis. It is filed as functional, organism-based. Particulars: dose 1-10 µM, time 280-400 min.

Data set [11] has as its target T1, Importin-5 (Homo sapiens). In words: Binding affinity to human IPO5 in human PC-3 cell lysate assessed as inhibition of IPO5 interaction with NLS PB1 cargo protein from Influenza A virus at 10 uM for 30 mins by pull-down assay. It counts as subcellular.
Data set [12] addresses T1, Importin-5 (Homo sapiens). Nature of the data set: Competitive binding affinity to human IPO5 in human PC-3 cell lysate at 10 uM for 30 mins followed by GOYA-P treatment for 30 mins by DTB-Cy3 dye based SDS-PAGE analysis. It is filed as subcellular. The conditions noted are these: time 60.0 min.
Data set [13] deals with Vimentin (Homo sapiens) (UniProt P08670). In words: Competitive binding affinity to human Vimentin in human PC-3 cell lysate at 10 uM for 30 mins followed by WA-P1 treatment for 30 mins by SDS gel Cy3 fluorescence based MS/MS analysis. It counts as subcellular. Particulars: time 60.0 min.
Data set [14] addresses T1, Importin-5 (Homo sapiens). Nature of the data set: Binding affinity to human IPO5 in human PC-3 cell lysate incubated for 30 mins by DTB-Cy3 dye based pull down analysis. It counts as subcellular.
Data set [15] addresses Heat shock protein HSP90 (Homo sapiens) (UniProt P07900+P08238). Nature of the data set: Binding affinity to recombinant human HSP90 at 10 uM by Western blotting based pull-down assay. It counts as protein assay.

Sequence of Annexin A2 (Homo sapiens) (P07355 whole entry): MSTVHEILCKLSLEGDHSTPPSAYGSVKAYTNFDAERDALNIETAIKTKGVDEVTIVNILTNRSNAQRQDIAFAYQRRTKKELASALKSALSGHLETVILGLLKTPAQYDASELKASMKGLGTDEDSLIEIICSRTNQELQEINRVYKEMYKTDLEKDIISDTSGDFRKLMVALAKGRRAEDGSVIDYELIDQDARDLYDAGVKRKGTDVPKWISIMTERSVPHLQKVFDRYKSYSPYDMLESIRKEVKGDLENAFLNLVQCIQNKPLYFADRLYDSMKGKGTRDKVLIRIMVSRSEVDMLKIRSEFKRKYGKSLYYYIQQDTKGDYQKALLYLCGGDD
Sequence of Vimentin (Homo sapiens) (P08670 whole entry): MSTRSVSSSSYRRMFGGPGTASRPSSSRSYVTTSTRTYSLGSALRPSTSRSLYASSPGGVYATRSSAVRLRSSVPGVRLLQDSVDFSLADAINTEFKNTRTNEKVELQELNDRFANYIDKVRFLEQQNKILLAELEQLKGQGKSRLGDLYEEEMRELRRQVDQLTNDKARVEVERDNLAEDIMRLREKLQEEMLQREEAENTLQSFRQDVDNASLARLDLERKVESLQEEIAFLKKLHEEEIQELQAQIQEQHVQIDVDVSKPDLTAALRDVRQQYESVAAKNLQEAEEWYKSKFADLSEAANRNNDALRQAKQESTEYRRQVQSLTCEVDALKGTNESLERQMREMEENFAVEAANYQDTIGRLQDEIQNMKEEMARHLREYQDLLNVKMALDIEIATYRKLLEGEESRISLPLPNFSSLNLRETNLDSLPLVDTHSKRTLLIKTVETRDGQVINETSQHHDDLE

For the compound `CC1=C(CO)C(=O)O[C@@H]([C@@H](C)[C@H]2CC[C@H]3[C@@H]4C[C@H]5O[C@]56[C@@H](O)C=CC(=O)[C@]6(CO)[C@H]4CC[C@]23C)C1`, the outcome (in the data set on Influenza A virus [1]; in data set [2]; in the data set with Influenza A virus [3]; with A549 [4]; in the data set on Influenza A virus [5]; in [6]) was Active. In addition, the result (in the data set with Influenza A virus [7]; on Vimentin (Homo sapiens) [9]; with Influenza A virus [10]; in data set [11]; in [12]; on Vimentin (Homo sapiens) [13]) was Active. For the same compound, the Activity entry with A549 [8] is listed as “Non-Toxic”.
As to `C=C(C)C(=O)O[C@H]1C[C@@]2(C)OC(=CC2=O)/C(CO)=C\[C@H]2OC(=O)C(=C)[C@H]12` [GOIAZENSOLIDE], the outcome (in data set [2]; in the data set on Influenza A virus [5]; in data set [12]) was Active. In addition, the Activity entry in the data set with A549 [8] was “Non-Toxic”.
Take `C#CCOCC(=C)C(=O)O[C@H]1C[C@@]2(C)OC(=CC2=O)/C(CO)=C\[C@H]2OC(=O)C(=C)[C@H]12`: in data set [14], the outcome was Active.
As to `COC(=O)[C@]12CCC(C)(C)C[C@@H]1[C@H]1C(=O)C=C3[C@@]4(C)C=C(C#N)C(=O)C(C)(C)[C@@H]4CC[C@@]3(C)[C@]1(C)CC2`, the result with A549 [4] and in the data set on Influenza A virus [5] was Active.
For `C#CCCC(=O)OCC1=C(C)CC([C@@H](C)[C@H]2CC[C@H]3[C@@H]4C[C@H]5O[C@]56[C@@H](O)C=CC(=O)[C@]6(C)[C@H]4CC[C@]23C)OC1=O` (stereo partly drawn), the result (in the data set with Influenza A virus [5]; in the data set on Influenza A virus [7]; in [15]) was Active. The Activity entry in the data set with A549 [8] is reported as “Non-Toxic”.
With `C#CCCC(=O)O[C@H]1C=CC(=O)[C@]2(C)[C@H]3CC[C@]4(C)[C@@H]([C@H](C)C5CC(C)=C(CO)C(=O)O5)CC[C@H]4[C@@H]3C[C@H]3O[C@]132` (stereo partly drawn), the outcome (in the data set on Influenza A virus [5]; in the data set on Influenza A virus [7]; in data set [15]) was Active. Besides, in the data set on A549 [8], the Activity result is “Non-Toxic”.
